Non-standard residues stand in square brackets, D forms with d. Residues, ends and D or L forms follow the SMILES beside them. No end group written: not given here. pGlu = O=C1CC[C@@H](C(=O)O)N1
Tests used:
ACE [1] = details: competitive substrates; cited from earlier work
[2] = system: ACE purified from human urine; test: ACE activity assay (hydrolysis of Benzoyl-GlyHisLeu), I50 determination; assay type: biochemical; details: in vitro, pH 8.0, 37° C
Procedure: These factors include the source of enzyme, its purity, the substrate used and its concentration, and the composition of the assay buffer. All I50 data reported herein have been performed with the same assay system and same enzyme (human urinary ACE) and with an approximately 1/2Km level of substrate and are therefore internally consistent.
ACE activity assay. […] To initiate the assay, 40 μl of enzyme and 10 μl of water or inhibitor dissolved in water were preincubated for five minutes at 37° C. […] To terminate the reaction, 1 ml of 0.1M HCl was added, following which 1 ml of ethyl acetate was added. The mixture was agitated on a rotary mixer and centrifuged briefly to separate the phases.
An aliquot, 500 μl, of the ethyl acetate layer was transferred to a liquid scintillation vial containing 10 ml of Riafluor, trademark New England Nuclear Corporation, Boston, Massachusetts. For determination of I50 values, enzyme activity in the presence of inhibitor at a series of different concentrations was compared to activity in the absence of inhibitor.

[3] = system: Blood Pressure Response to 400 ng/kg of Angiotensin I; test: Intravenous effectiveness: blood pressure response to angiotensin I in anesthetized rats; assay type: in vivo, rat; details: 400 ng/kg angiotensin I, -5 minutes
Procedure: (§1) Rats (210-290 g body weight) were fasted overnight and then anesthetized with intraperitoneal pentobarbital, 50-60 mg/kg. Tracheostomy was performed and the animals were ventilated mechanically. A cannula was inserted into a femoral vein for injection of angiotensin I, and a second cannula was inserted into a common carotid artery for direct measurement of arterial blood pressure. Heparin, 1,000 units, was injected via the femoral vein to prevent coagulation. Blood pressure was measured with a pressure transducer connected to a polygraph. The rats were injected with 400 ng/kg of angiotensin I in 20 μl of 0.9 g % NaCl; an amount of angiotensin I sufficient to raise mean arterial blood pressure by 39 mm Hg. […] At timed intervals, the effects of 400 ng/kg of angiotensin I on mean arterial blood pressure were tested.
At time intervals, the effects of angiotensin I, 400 ng/kg, on mean arterial blood pressure were tested.

[4] = system: Blood Pressure Response to 400 ng/kg of Angiotensin I; test: Oral effectiveness: blood pressure response to angiotensin I in anesthetized rats; assay type: in vivo, rat; details: 400 ng/kg angiotensin I, before drug
Procedure: as §1

ACE [5] = details: disulfide formed by dimerization of SQ 14,225; believed; cited from earlier work

Compound | Km relative to angiotensin I (ACE [1]) | IC50 [2] | other results
C[C@H](NC(=O)[C@H](Cc1c[nH]c2ccccc12)NC(=O)[C@H](CCCCN)NC(=O)[C@@H]1CCC(=O)N1)C(=O)N1CCC[C@H]1C(=O)O [BPP5a, <GluLysTrpAlaPro] ([pGlu]KWAP-OH) | a lower Km than angiotensin I | – | –
C[C@H](CSC(=O)[C@H](Cc1ccccc1)NC(=O)[C@H](CCCCNC(=O)OC(C)(C)C)NC(=O)C1CCCC1)C(=O)N1CCC[C@H]1C(=O)O [Example 17] | – | 25 nM | –
RPPGFSPFR [bradykinin] | a lower Km than angiotensin I | – | –
DRVYIHPFHL [angiotensin I] | – | – | rise of mean arterial blood pressure by angiotensin I [3]: 39 mm Hg; rise of mean arterial blood pressure by angiotensin I [4]: 39 mm Hg
C[C@H](CSSC[C@@H](C)C(=O)N1CCC[C@H]1C(=O)O)C(=O)N1CCC[C@H]1C(=O)O [disulfide] | – | – | inhibitory activity of dimer (ACE [5]): largely inactive as an inhibitor
C[C@H](CSC(=O)[C@H](Cc1ccccc1)NC(=O)[C@H](CCCCN)NC(=O)C1CCCC1)C(=O)N1CCC[C@H]1C(=O)O [Example 18, N^α -[3-(N^α -cyclopentylcarbonyl-L-lysyl-L-phenylalanylthio)2-D-methylpropanoyl]-L-proline] | – | 15 nM | –
